Source: PMC8311653, “Design, Synthesis, In Vitro and In Vivo Characterization of Selective NKCC1 Inhibitors for the Treatment of Core Symptoms in Down Syndrome” (Journal of Medicinal Chemistry, 2021)
≈ marks a conversion by molar mass, not a printed value.

Experiments:
NKCC1 = target: T1, NKCC1 (Homo sapiens, UniProt P55011); assay: Cl- influx assay in NKCC1-transfected HEK293 cells; format: cell-based; conditions: for inhibition at 100 µM: HEK293, read-out: Inhibition 100 μM Cl- influx (%); for inhibition at 10 µM: HEK293, read-out: Inhibition 10 μM Cl- influx (%)
T1 construct: host or cells: HEK293
T1 sequence (P55011 1-1212): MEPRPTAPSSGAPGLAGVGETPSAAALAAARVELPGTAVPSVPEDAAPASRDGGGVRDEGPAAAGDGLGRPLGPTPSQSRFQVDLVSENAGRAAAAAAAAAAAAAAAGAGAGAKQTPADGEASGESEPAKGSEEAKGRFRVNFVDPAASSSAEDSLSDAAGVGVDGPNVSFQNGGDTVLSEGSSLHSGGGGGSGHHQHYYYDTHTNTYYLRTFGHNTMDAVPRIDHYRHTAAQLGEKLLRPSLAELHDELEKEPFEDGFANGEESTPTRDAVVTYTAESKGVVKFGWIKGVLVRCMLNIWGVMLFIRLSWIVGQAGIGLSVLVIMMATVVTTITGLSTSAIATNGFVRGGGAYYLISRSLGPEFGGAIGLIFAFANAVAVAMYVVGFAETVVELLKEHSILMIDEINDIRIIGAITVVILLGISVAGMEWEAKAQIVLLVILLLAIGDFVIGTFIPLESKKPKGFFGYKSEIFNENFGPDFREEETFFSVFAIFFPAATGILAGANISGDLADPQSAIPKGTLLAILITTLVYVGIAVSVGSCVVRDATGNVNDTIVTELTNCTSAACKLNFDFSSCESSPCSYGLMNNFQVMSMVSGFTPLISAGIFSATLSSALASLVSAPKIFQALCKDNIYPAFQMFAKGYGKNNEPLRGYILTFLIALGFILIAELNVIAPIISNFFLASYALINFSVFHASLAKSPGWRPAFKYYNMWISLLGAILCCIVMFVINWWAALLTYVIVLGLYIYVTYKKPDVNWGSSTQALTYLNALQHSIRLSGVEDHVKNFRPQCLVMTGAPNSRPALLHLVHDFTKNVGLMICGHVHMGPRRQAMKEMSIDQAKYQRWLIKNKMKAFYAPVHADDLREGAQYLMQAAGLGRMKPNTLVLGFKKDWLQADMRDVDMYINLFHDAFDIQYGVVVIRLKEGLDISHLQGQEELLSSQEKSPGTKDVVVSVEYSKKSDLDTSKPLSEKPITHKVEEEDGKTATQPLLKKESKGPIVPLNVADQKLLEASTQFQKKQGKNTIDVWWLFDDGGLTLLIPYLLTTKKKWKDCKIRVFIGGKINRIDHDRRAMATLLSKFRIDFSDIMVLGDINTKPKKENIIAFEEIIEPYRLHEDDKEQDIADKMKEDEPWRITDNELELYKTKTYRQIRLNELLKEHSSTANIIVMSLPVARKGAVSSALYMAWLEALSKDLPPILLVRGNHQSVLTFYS
Protocol: HEK293 cells were cultured in Dulbecco’s modified Eagle’s medium (DMEM) supplemented with 10% fetal bovine serum, 1% L-glutamine, 100 U/mL penicillin, and 100 μg/mL streptomycin and maintained at 37 °C in a 5% CO2 humidified atmosphere. To assess NKCC1 and NKCC2 activity (Cl^– influx assay), 3 million HEK cells were plated in a 10 cm cell-culture dish and transfected with a transfection mixture comprising 5 mL of DMEM, 4 mL of Opti-MEM, 8 μg of DNA plasmid coding for NKCC1 (PRK-NKCC1 obtained from Medical Research Council and the University of Dundee), NKCC2 (OriGene plasmid #RC216145) subcloned in PRK5 plasmid, or mock control (empty vector), together with 8 μg of a plasmid coding for the Cl^–-sensitive variant of the membrane-targeted fluorescent protein YFP, mbYFPQS (Addgene plasmid #80742),[53] and 32 μL of Lipofectamin 2000. To assess KCC2 activity (Tl influx assay), cells were transfected with 8 μg of KCC2[54] subcloned in the PRK5 plasmid or mock control (empty vector) and 16 μL of Lipofectamin 2000. After 4 h, the cells were collected and plated in 96-well black-walled, clear-bottomed plates at a density of 2.5 × 10^4. After 48 h, cells were used for the Cl^– or Tl influx assays. All reagents were purchased from Life Technologies, unless otherwise specified.
Transfected cells were treated with 10 μM or 100 μM bumetanide (as positive controls), DMSO (as the negative control), or with each of our compounds in 100 μL/well of a Cl^–-free hypotonic solution (67.5 mM Na^+ gluconate, 2.5 mM K^+ gluconate, 15 mM HEPES pH 7.4, 50 mM glucose, 1 mM Na2HPO4, 1 mM NaH2PO4, 1 mM MgSO4, and 1 mM CaSO4). After 30 min of incubation, plates were loaded into a Victor 3V (PerkinElmer) multiplate reader equipped with an automatic liquid injector system, and fluorescence of Cl^–-sensitive mbYFPQS was recorded with excitation at 485 nm and emission at 535 nm. For each well, fluorescence was first recorded for 20 s of the baseline and for 60 s after delivery of a NaCl concentrated solution (74 mM final concentration in the assay well). Fluorescence of Cl^–-sensitive mbYFPQS is inversely correlated to the intracellular Cl^– concentration;[53] therefore, chloride influx into the cells determined a decrease in mbYFPQS fluorescence. To represent the fluorescent traces in time, we normalized the fluorescence value for each time point to the average of the fluorescence value of the first 20 s of the baseline (ΔF/F0). To quantify the average effects as represented by the bar plots, we expressed the decrease in fluorescence upon NaCl application as the average of the last 10 s of ΔF/F0 normalized traces. Moreover, for each experiment, to account for the contribution of Cl^– changes that were dependent on transporters/exchangers other than NKCC1 or NKCC2, we subtracted the value of the last 10 s of ΔF/F0 normalized traces obtained from mock-transfected cells (either control or treated) from the respective ΔF/F0 value obtained from the cells transfected with NKCC1 or NKCC2. We then presented in the figures all the data as a percentage of the fluorescence decrease versus the value of the control DMSO.

[1] = Aqueous kinetic solubility in PBS pH 7.4; format: physicochemical; conditions: phosphate buffered saline (PBS); aqueous kinetic solubility from 10 mM DMSO solution in PBS pH 7.4; target concentration 250 μM (final DMSO 2.5%)
Protocol: 1. Aqueous kinetic solubility.
30 µL aliquots of 10 mM DMSO stock solution of the test compound were incubated in Phosphate
Buffered Saline (PBS) at pH 7.4 at 25°C for 24h. After centrifugation the dissolved compound in the
supernatant was quantified by LC-MS/MS.
Aqueous kinetic solubility was determined by UV quantification at
215 nm. […]

[2] = In vitro metabolic stability in mouse liver microsomes; conditions: tissue homogenate, pH 7.4
Protocol: 1. Aqueous kinetic solubility. […]
3. In vitro mouse microsomial stability. […]
microsomes (Sekisui Xenotech, LCC), 0.1M Tris-HCl buffer (pH 7.4), and 10% DMSO. The final […]
After pre-incubation, the cofactors (NADPH, G6P, G6PDH, MgCl2 pre-dissolved in 0.1M Tris-HCl) were added to the incubation mixture and the incubation was continued at 37 °C for 1h. At each time point (0, 5, 15, 30, 60 min), 30µL of incubation mixture was diluted with 200 µL cold acetonitile spiked with 200 nM of warfarin as internal standard, followed by centrifugation at 3500 g for 30 min. The supernatant was further diluted with H2O (1:1) for analysis.
An aliquot of 200 µl of the supernatant was removed, and the concentration of the test compound was […]
quantified by LC-MS/MS. The percentage of the test compound remaining at each time point relative […]
to t=0 was calculated. The half-lives (t½) were determined by a one-phase decay equation using a […]
non-linear regression of compound concentration vs time.

| SMILES | Inhibition 10 μM Cl- influx (%) (NKCC1; NKCC1-transfected HEK293 cells) | inhibition at 100 µM (NKCC1) [%] | solubility at 24 h [1] [µM] | half-life at 5 μM [2] [min] | Inhibition 100 μM Cl- influx (%) (NKCC1; 100 μM, NKCC1-transfected HEK293 cells) | inhibition at 10 µM (NKCC1) [%] |
| --- | --- | --- | --- | --- | --- | --- |
| CCCCCCNc1ccc(C(=O)O)cc1S(=O)(=O)N(C)C [Compound 24, 3-(-N,N-Dimethylsulfamoyl)-4-(hexylamino)benzoic Acid] | Inactive | 19.8 ± 5.2 | 243 (≈ 79.8 µg/mL) | 17 | – | – |
| CN(C)S(=O)(=O)c1cc(C(=O)O)ccc1NCCC(C)(C)C [Compound 26, 4-(-N-3,3-Dimethylbutylamino)-3-(dimethylsulfamoyl)benzoic Acid] | Inactive | – | > 250 | > 60 | Inactive | – |
| CN(C)S(=O)(=O)c1cc(C(=O)O)ccc1NCCCC(F)(F)F [Compound 27, 3-(-N,N-Dimethylsulfamoyl)-4-(4,4,4-trifluorobutylamino)benzoic Acid] | Inactive | 1.9 ± 5 | 245 (≈ 86.8 µg/mL) | > 60 | – | – |
| CN(C)S(=O)(=O)c1cc(C(=O)O)ccc1NCCCCCC(F)(F)F [Compound 28, 3-(-N,N-Dimethylsulfamoyl)-4-(6,6,6-trifluorohexylamino)benzoic Acid] | Inactive | 12.6 ± 4.1 | 249 (≈ 95.2 µg/mL) | > 60 | – | – |
| CNS(=O)(=O)c1cc([N+](=O)[O-])ccc1NCCC(C)(C)C [Compound 4, 2-(3,3-Dimethylbutylamino)-N-methyl-5-nitro-benzenesulfonamide] | – | 28.7 ± 4.4 | 3 (≈ 0.946 µg/mL) | 6 | – | 17.7 ± 3.9 |
| CCCCCCNc1ccc(C(=O)O)cc1S(N)(=O)=O [Compound 16, 4-(Hexylamino)-3-sulfamoyl-benzoic Acid] | Inactive | 4.9 ± 3.7 | 238 (≈ 71.5 µg/mL) | > 60 | – | – |
| COCCCCNc1ccc(C(=O)O)cc1S(=O)(=O)N(C)C [Compound 30, 3-(-N,N-Dimethylsulfamoyl)-4-(4-methoxybutylamino)benzoic Acid] | Inactive | 5.2 ± 3.7 | 247 (≈ 81.6 µg/mL) | > 60 | – | – |
| CCCCCCCCNc1ccc(C(=O)O)cc1S(N)(=O)=O [Compound 17, 4-(Octylamino)-3-sulfamoyl-benzoic Acid] | Inactive | 24 ± 8.5 | > 250 | 18 | – | – |
| COCCNc1ccc(C(=O)O)cc1S(=O)(=O)N(C)C [Compound 29, 3-(-N,N-Dimethylsulfamoyl)-4-(2-methoxyethylamino)benzoic Acid] | – | 4.1 ± 5 | 237 (≈ 71.7 µg/mL) | > 60 | – | 1.4 ± 2.7 |
| CCCCCCNc1ccc([N+](=O)[O-])cc1S(=O)(=O)NC [Compound 3, 2-(Hexylamino)-N-methyl-5-nitro-benzenesulfonamide] | – | 29.4 ± 2.8 | 1 (≈ 0.315 µg/mL) | < 5 | – | 6.4 ± 3.4 |
| CCCCNc1ccc([N+](=O)[O-])cc1S(N)(=O)=O [Compound 5, 2-(Butylamino)-5-nitro-benzenesulfonamide] | Inactive | 4.7 ± 13.3 | 85 (≈ 23.2 µg/mL) | 6 | – | – |
